# Data from US9062028B2, “Bicyclic nitrogen containing heteroaryl TGR5 receptor modulators” (Bristol-Myers Squibb Company, priority 2011, dated 2015).
# Where a name gives a salt, the structure may show the parent alone.
# How the values were obtained:
# recombinant human TGR5 = target: T1, recombinant human TGR5 (Homo sapiens, UniProt Q8TDU6); experiment: cAMP assay (cAMP accumulation, HTRF) in CHOK1 cells stably expressing TGR5; assay type: cell-based; details: CHOK1 cells stably expressing human TGR5, 30 minutes at RT, 1% DMSO
# T1 construct: expressed in transfected cells
# T1 sequence (Q8TDU6 1-330): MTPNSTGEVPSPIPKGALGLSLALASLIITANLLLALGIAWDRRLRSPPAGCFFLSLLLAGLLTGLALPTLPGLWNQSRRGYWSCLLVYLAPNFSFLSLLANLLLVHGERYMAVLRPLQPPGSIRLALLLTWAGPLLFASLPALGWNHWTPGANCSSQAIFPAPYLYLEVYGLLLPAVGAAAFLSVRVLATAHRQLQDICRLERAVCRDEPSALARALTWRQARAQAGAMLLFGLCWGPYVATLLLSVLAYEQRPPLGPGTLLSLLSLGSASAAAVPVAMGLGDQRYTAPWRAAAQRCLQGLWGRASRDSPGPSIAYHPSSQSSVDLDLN
# Method in brief: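 Agonist-induced cAMP accumulation: stable TGR5-CHOK1 cells treated 30 min at RT with compound (1% DMSO) plus 0.1 mM IBMX. HTRF ratio converted to nM cAMP via standard curve; EC50 from four-parameter logistic fit, midpoint between baseline and maximum.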
# recombinant human DGAT1 = target: T2, recombinant human DGAT1 (Homo sapiens, UniProt O75907); experiment: Diacylglycerol Acyltransferase (DGAT) Assay; assay type: biochemical; details: membranes from Sf9 cells expressing recombinant human DGAT1; 2-monooleoylglycerol and [3H]-oleoyl-CoA as substrates; read-out: IC50 against the DGAT1 enzyme
# T2 construct: made in house; host or cells: Sf9 insect cells (baculovirus), membrane preparation
# T2 sequence (O75907 1-488): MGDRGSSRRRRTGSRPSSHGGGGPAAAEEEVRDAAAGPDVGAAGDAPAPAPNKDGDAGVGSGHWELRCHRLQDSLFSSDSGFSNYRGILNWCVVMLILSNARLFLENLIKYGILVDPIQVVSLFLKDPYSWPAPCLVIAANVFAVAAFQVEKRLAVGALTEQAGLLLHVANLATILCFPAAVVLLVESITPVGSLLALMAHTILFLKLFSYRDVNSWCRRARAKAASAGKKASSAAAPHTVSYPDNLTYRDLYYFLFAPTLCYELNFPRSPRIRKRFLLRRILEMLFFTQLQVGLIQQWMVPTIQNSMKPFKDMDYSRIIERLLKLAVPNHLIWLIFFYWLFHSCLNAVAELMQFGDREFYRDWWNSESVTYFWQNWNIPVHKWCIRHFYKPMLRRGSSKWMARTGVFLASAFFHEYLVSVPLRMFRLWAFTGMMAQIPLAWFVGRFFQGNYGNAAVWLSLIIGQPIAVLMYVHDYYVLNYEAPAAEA
# Protocol: Diacylglycerol Acyltransferase (DGAT) Assay
# DGAT1 enzyme was assayed using membranes isolated from Sf9 cells expressing the recombinant human DGAT1 cDNA with 2-monooleoylglycerol and [^3H]-oleoyl-CoA as substrates as described by Seethala et al. (Anal Biochem., 383(2):144-150 (Dec. 15, 2008)). Briefly, the assays were conducted in 384-well plates in a total volume of 30 μl at 25° C. In each assay, 200 ng of recombinant human DGAT1 membrane was incubated with 10 μM of 2-monooleoylglycerol and 15 μM of [^3H]-oleoyl-CoA in 100 mM potassium phosphate (pH 7.4) for 20 min with various concentrations of compounds delivered in DMSO. The assay was terminated by the addition of 20 μl of Stopping Solution (7.5 mg/ml Yittrium Oxide Polylysine beads, 3.3 mg/ml Fraction V BSA and 200 μM Mercuric chloride in 50 mM HEPES, pH 7.4). The signal was measured 1 h after quenching the reaction using LEADSEEKER^SM for 5 minutes. To calculate the degree of inhibition, the zero level of enzyme activity (blank) was defined by the above assay procedure using membrane form Sf9 cell uninfected with baculovirus (Naive) and the 100% level of DGAT1 enzyme activity was defined by human […] DGAT1 assay with the vehicle DMSO. The IC50s of inhibitors were determined by logistic 4 parameter equation in XL-fit.
SMILES,EC50 (recombinant human TGR5) [µM],IC50 (recombinant human DGAT1) [µM]
"Cc1c(Cl)cccc1OCCCC(=O)N1C[C@@H]2C[C@@H]2c2c(-c3cnn(Cc4cccc(C(=O)NCCS(=O)(=O)O)c4)c3)cccc21 [Example 138A, 2-(3-((4-((1aR,7bS)-3-(4-(3-Chloro-2-methylphenoxy)butanoyl)-1a,2,3,7b-tetrahydro-1H-cyclopropa[c]quinolin-7-yl)-1H-pyrazol-1-yl)methyl)benzamido) ethanesulfonic acid]",0.024,> 10
"Cc1cccc(OCCCC(=O)N2CCCc3c(-c4ccnc(Nc5ccc(C(=O)O)cc5)c4)cccc32)c1C [Example 168A, 4-(4-(1-(4-(2,3-Dimethylphenoxy)butanoyl)-1,2,3,4-tetrahydroquinolin-5-yl)pyridin-2-ylamino) benzoic acid]",–,> 10
"Cc1cccc(OCCCC(=O)N2CCCc3c(-c4cnn(CC(=O)O)c4)cccc32)c1C [Example 1, 2-(4-(1-(4-(2,3-Dimethylphenoxy)butanoyl)-1,2,3,4-tetrahydroquinolin-5-yl)-1H-pyrazol-1-yl)acetic acid]",3.54,> 10
"Cc1c(Cl)cccc1OCCCC(=O)N1C[C@@H]2C[C@@H]2c2c(-c3cnn(Cc4cccc(C(=O)O)c4)c3)cccc21 (single isomer, unassigned) [Example 231]",0.047,> 10
"Cc1cccc(OCCCC(=O)N2C[C@@H]3C[C@@H]3c3c(-c4cccc(COC(=O)NCCC(=O)O)c4)cccc32)c1C (single isomer, unassigned) [Example 237]",–,> 10
"Cc1cccc(OCCCC(=O)N2CCCc3c(-c4cnn(Cc5cccc(NC(=O)NCS(=O)(=O)O)c5)c4)cccc32)c1C [Example 86, (3-(3-((4-(1-(4-(2,3-Dimethylphenoxy)butanoyl)-1,2,3,4-tetrahydroquinolin-5-yl)-1H-pyrazol-1-yl)methyl)phenyl)ureido)methanesulfonic acid]",–,> 10
"Cc1cccc(OCCCC(=O)N2CC3CC3c3c(-c4cnn(Cc5c(F)cc(C(=O)NCCC[C@H](N)C(=O)O)cc5Cl)c4)cccc32)c1C (stereo partly drawn) [Example 69A, (2S)-2-Amino-5-(3-chloro-4-((4-(3-(4-(2,3-dimethylphenoxy)butanoyl)-1a,2,3,7b-tetrahydro-1H-cyclopropa[c]quinolin-7-yl)-1H-pyrazol-1-yl)methyl)-5-fluorobenzamido)pentanoic acid]",–,> 10
"Cc1cccc(OCCCC(=O)N2CCOc3c(-c4cnn(Cc5cccc(NC(=O)NCCS(=O)(=O)O)c5)c4)cccc32)c1C [Example 177N, 2-(3-(3-((4-(4-(4-(2,3-Dimethylphenoxy)butanoyl)-3,4-dihydro-2H-benzo[b][1,4]oxazin-8-yl)-1H-pyrazol-1-yl)methyl)phenyl)ureido) ethanesulfonic acid]",–,> 10
"Cc1cccc(OCCCC(=O)N2CCOc3c(-c4cnn(Cc5c(F)cc(C(=O)NCC[N+](C)(C)C)cc5Cl)c4)cccc32)c1C [Example 177P, 2-(3-Chloro-4-((4-(4-(4-(2,3-dimethylphenoxy)butanoyl)-3,4-dihydro-2H-benzo[b][1,4]oxazin-8-yl)-1H-pyrazol-1-yl)methyl)-5-fluorobenzamido)-N,N,N-trimethylethanaminium, TFA]",–,> 10
